Data on six molecules can be found in ChEMBL document CHEMBL3991601, “The target landscape of clinical kinase drugs” (Science, 2017).

pKd: −log10 of the molar value. Active and inactive are the calls of the source. Cut-off read from the data, not from the text of the source, for most assays here: actives have a measured Kd and inactives only a lower limit. Some results are limits rather than exact numbers.

In test [1] the target is Tyrosine-protein kinase ABL2 (Homo sapiens, UniProt P42684).
The target of test [2] is T1, Adenine phosphoribosyltransferase (Homo sapiens, UniProt P07741).
T1 sequence (P07741 whole entry): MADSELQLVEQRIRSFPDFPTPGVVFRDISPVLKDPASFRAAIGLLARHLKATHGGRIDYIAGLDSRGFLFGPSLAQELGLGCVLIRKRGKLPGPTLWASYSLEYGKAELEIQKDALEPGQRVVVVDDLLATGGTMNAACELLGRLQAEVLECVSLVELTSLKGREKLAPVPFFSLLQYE

Test [3] concerns the target Calcium/calmodulin-dependent protein kinase kinase 2 (Homo sapiens, UniProt Q96RR4).
In test [4] the target is Tyrosine-protein kinase CSK (Homo sapiens, UniProt P41240).
Tyrosine-protein kinase CSK, sequence (P41240 whole entry): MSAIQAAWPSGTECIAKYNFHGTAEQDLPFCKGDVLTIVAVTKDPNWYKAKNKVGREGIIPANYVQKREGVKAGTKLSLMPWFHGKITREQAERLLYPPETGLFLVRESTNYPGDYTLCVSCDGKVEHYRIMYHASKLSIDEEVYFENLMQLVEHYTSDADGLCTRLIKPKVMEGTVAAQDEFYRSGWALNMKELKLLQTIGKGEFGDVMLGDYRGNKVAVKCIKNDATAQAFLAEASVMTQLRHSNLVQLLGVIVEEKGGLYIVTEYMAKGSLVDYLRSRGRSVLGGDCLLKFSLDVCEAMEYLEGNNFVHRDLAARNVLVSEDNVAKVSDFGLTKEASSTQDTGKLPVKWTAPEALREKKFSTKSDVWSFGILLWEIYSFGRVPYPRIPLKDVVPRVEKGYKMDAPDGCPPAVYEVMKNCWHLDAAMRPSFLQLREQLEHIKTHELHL
Test [5] concerns the target T2, Delta(24)-sterol reductase (Homo sapiens, UniProt Q15392).
T2 sequence (Q15392 whole entry): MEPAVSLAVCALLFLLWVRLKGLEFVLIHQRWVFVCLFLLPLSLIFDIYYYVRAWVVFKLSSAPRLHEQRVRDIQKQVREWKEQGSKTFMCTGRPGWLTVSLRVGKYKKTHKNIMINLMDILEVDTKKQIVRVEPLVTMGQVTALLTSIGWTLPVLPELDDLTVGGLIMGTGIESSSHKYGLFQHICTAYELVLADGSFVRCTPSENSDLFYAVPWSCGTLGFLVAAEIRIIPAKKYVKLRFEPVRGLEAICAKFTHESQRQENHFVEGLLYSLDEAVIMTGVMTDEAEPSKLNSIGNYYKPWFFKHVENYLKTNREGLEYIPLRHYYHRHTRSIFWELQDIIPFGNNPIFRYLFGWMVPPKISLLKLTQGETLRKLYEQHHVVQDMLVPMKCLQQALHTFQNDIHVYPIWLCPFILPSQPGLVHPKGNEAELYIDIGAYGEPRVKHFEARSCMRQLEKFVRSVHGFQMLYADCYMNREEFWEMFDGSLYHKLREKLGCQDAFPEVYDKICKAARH

Test [6] deals with Mitogen-activated protein kinase 9 (Homo sapiens, UniProt P45984).
Mitogen-activated protein kinase 9, sequence (P45984 whole entry): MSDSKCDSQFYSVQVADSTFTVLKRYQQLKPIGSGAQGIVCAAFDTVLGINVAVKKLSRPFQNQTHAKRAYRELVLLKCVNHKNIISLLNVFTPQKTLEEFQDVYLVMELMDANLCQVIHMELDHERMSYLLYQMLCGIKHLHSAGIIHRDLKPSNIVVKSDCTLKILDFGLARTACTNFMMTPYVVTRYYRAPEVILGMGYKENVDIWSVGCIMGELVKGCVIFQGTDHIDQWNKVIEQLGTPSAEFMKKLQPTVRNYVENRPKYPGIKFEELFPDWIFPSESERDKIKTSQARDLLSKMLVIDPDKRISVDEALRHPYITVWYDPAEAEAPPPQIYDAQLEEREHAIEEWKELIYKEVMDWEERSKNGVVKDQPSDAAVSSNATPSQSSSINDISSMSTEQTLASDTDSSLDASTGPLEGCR
For test [7], the target named is T3, ATP-dependent 6-phosphofructokinase, platelet type (Homo sapiens, UniProt Q01813).
T3 sequence (Q01813 whole entry): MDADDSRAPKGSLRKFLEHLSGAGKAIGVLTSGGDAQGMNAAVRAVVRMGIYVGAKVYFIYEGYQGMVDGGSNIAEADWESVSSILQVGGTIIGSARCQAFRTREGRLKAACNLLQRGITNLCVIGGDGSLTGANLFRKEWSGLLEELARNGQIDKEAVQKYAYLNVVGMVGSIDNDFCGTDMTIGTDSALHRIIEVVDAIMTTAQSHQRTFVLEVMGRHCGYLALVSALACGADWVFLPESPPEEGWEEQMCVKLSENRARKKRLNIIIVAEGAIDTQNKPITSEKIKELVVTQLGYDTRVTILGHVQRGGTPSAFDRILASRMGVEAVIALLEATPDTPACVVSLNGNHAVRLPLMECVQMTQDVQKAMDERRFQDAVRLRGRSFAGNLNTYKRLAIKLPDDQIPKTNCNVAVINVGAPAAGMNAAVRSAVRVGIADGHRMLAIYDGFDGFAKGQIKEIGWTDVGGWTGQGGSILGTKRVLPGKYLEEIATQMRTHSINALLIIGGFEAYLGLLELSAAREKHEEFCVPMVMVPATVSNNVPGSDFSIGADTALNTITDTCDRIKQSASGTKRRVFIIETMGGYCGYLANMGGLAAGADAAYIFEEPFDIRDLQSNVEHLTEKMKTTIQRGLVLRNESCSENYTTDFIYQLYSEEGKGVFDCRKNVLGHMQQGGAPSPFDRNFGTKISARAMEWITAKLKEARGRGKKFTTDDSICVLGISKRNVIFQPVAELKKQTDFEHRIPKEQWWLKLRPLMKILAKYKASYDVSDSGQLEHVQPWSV

Test [8] has as its target Protein kinase C theta type (Homo sapiens, UniProt Q04759).
Test [9] addresses T4, Succinate--CoA ligase [ADP-forming] subunit beta, mitochondrial (Homo sapiens, UniProt Q9P2R7).
T4 sequence (Q9P2R7 whole entry): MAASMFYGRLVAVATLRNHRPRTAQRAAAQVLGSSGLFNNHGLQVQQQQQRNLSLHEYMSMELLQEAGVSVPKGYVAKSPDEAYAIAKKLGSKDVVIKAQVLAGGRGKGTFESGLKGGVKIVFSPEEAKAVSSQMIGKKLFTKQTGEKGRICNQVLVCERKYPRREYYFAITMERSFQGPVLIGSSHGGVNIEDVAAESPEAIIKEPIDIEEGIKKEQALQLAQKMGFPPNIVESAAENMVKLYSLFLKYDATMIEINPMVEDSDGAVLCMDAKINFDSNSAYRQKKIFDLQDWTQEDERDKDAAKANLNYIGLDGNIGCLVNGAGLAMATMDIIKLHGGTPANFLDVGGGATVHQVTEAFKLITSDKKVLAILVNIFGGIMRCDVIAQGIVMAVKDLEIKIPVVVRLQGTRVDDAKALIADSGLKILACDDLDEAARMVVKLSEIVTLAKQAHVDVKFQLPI

Test [10] concerns the target Tyrosine-protein kinase SYK (Homo sapiens, UniProt P43405).
In the next test the target is Wee1-like protein kinase (Homo sapiens, UniProt P30291).
Wee1-like protein kinase, sequence (P30291 whole entry): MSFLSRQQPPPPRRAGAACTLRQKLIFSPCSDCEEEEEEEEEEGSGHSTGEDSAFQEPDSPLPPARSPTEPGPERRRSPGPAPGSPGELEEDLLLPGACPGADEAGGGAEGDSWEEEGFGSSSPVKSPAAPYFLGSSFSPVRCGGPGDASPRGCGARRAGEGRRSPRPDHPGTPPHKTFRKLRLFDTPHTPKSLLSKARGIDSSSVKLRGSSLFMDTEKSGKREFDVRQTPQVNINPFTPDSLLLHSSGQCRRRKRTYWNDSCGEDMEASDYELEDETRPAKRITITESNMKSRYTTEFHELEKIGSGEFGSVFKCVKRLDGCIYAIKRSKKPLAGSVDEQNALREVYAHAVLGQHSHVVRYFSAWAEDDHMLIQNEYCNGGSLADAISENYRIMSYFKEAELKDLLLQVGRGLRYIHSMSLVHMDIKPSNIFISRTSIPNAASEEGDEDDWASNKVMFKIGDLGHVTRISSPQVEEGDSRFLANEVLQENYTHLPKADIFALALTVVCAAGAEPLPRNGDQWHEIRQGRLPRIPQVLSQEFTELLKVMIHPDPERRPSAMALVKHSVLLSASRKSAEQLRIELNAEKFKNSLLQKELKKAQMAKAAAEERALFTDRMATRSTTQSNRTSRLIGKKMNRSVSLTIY
Test [11] deals with T5, Uncharacterized protein FLJ45252 (Homo sapiens, UniProt Q6ZSR9).
T5 sequence (Q6ZSR9 whole entry): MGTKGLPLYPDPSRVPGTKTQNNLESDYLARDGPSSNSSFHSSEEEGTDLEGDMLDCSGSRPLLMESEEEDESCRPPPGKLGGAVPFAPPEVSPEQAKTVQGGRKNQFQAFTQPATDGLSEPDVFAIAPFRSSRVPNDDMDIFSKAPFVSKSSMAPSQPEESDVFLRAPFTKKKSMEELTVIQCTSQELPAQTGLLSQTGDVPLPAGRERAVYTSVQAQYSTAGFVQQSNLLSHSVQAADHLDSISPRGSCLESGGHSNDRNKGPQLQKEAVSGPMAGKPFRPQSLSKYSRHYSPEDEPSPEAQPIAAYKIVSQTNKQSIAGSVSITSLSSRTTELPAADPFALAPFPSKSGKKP
The conditions noted are these: read-out: Kd apparent; k-562, colo 205, sk-n-be(2) and mv-4-11.
Note: in the data inactive means no Kd found up to 30 µM.

Protein kinase C theta type, sequence (Q04759 whole entry): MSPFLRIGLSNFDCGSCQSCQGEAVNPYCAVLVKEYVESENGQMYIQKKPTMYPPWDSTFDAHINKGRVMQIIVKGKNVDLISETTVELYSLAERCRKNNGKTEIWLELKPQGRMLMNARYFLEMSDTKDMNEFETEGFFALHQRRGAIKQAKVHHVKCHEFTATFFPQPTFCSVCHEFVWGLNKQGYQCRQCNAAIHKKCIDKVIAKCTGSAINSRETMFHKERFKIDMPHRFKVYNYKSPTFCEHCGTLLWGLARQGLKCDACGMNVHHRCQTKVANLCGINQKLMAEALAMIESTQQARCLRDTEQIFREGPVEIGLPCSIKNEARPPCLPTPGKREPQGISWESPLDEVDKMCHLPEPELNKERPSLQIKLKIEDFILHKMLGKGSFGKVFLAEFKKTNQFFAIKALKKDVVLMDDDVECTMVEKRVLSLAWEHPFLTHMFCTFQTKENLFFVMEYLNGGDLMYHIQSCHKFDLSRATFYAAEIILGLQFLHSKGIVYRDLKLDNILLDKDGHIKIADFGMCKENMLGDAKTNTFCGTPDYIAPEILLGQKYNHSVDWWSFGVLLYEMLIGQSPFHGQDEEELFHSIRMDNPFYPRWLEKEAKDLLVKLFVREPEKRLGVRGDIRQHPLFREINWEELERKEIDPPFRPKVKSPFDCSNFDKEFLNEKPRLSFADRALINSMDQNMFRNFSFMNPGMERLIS
Calcium/calmodulin-dependent protein kinase kinase 2, sequence (Q96RR4 whole entry): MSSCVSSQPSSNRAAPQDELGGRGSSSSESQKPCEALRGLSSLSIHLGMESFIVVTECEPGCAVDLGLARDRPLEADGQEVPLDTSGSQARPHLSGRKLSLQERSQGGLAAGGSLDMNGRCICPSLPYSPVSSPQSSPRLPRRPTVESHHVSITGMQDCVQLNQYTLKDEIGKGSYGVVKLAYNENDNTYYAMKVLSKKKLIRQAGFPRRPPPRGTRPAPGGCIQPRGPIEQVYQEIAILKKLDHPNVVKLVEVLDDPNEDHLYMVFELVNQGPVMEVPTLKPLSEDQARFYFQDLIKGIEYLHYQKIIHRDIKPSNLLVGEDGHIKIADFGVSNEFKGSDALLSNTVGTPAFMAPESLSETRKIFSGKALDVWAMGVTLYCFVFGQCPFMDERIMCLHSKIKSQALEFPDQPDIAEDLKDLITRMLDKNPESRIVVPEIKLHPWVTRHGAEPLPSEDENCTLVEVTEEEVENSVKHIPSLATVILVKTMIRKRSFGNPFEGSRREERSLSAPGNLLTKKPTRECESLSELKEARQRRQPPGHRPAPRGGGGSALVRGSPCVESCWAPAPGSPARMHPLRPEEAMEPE
Tyrosine-protein kinase ABL2, sequence (P42684 whole entry): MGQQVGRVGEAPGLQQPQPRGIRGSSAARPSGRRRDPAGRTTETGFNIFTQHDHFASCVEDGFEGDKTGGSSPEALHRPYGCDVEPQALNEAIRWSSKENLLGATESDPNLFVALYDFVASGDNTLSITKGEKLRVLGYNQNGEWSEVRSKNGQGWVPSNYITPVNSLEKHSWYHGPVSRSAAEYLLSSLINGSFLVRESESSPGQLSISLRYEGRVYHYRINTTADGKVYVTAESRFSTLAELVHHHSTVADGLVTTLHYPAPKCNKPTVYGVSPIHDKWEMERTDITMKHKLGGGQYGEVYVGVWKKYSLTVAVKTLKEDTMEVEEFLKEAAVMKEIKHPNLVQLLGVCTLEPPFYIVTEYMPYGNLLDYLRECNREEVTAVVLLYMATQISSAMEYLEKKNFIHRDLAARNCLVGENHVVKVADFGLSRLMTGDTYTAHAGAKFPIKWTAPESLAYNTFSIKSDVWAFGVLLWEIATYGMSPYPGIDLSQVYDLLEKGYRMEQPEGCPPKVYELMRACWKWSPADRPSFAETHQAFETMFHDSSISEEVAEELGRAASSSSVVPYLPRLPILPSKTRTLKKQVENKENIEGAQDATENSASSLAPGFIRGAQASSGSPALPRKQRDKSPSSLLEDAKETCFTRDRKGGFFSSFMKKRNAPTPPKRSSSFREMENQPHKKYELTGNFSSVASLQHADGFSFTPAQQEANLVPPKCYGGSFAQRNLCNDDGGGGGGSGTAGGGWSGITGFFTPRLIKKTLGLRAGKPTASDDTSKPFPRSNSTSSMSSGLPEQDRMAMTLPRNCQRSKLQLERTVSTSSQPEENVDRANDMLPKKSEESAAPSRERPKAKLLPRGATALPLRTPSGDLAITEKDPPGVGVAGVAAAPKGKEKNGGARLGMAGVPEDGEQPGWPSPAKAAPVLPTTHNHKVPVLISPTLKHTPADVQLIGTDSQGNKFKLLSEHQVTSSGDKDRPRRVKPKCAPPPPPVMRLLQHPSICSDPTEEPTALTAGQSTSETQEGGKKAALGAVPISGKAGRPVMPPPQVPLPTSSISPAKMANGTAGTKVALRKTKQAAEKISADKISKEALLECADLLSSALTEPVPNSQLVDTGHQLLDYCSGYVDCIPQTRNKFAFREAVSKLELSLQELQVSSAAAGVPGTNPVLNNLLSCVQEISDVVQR

As to `C=CC(=O)N1CCC[C@H](n2c(=O)n(-c3ccc(Oc4ccccc4)cc3)c3c(N)ncnc32)C1`, the Kd in test [1], in test [2], in test [3], in [5], in [6] and in [7] was > 30 µM (inactive) throughout. Besides, the Kd (in [8]; in test [9]; in test [10]; on Wee1-like protein kinase; in [11]) was > 30 µM (inactive) each time. In addition, in test [4], the pKd was 8.15.

In the case of `Cc1nc2cc(-c3nn(C(C)C)c4ncnc(N)c34)ccc2o1`, the Kd in test [1], in test [2], in test [3], in test [4], in test [5] and in test [6] was > 30 µM (inactive) each time. Besides, the Kd (in [7]; in test [8]; in test [9]; in test [10]; on Wee1-like protein kinase; in [11]) was > 30 µM (inactive) throughout.

Regarding `Cc1nc(NC(=O)N2CCC[C@H]2C(N)=O)sc1-c1ccnc(C(C)(C)C(F)(F)F)c1` [ALPELISIB], the Kd in test [1], in test [2], in [3], in test [4], in test [5] and in test [6] was > 30 µM (inactive) in each case. Besides, the Kd (in [7]; in test [8]; in test [9]; in test [10]; on Wee1-like protein kinase; in test [11]) was > 30 µM (inactive) throughout.

For `O=C(Nc1c[nH]nc1-c1nc2cc(CN3CCOCC3)ccc2[nH]1)NC1CC1` [AT-9283], the Kd in [1] was 1.08 µM (active); in test [2], > 30 µM (inactive); in test [3] it was > 30 µM (inactive); in [5] it was > 30 µM (inactive); in [6] it was 0.509 µM (active); in [7] it was > 30 µM (inactive). For the same molecule, the Kd in [8] is > 30 µM (inactive); in test [9], > 30 µM (inactive); in [10] it was 0.116 µM (active); at Wee1-like protein kinase, > 30 µM (inactive); in [11], 0.024 µM (active).

Consider `COc1cc([C@@H]2c3cc4c(cc3[C@H](O)[C@H]3COC(=O)[C@@H]23)OCO4)cc(OC)c1OC` [AXL-1717], for which the Kd in test [1], in [2], in test [3], in [4], in test [5] and in test [6] was > 30 µM (inactive) each time. For the same molecule, the Kd (in test [7]; in [8]; in test [9]; in [10]; on Wee1-like protein kinase; in test [11]) was > 30 µM (inactive) in each case.

For `Cn1cc(-c2cnn3c(N)c(Br)c([C@@H]4CCCNC4)nc23)cn1` [SCH-900776], the Kd in test [1], in [2], in test [3], in test [4], in test [5] and in test [6] was > 30 µM (inactive) throughout. Besides, the Kd (in test [8]; in test [9]; in test [10]; on Wee1-like protein kinase; in test [11]) was > 30 µM (inactive) in each case.
